# Tests used:
# [1] = molecular target: stromelysin (Homo sapiens, UniProt P08254); test: Stromelysin inhibition activity (14C-acetylated casein digestion, Cawston et al); format: biochemical
# [2] = molecular target: T1, collagenase (Homo sapiens, UniProt P03956); conditions: for IC50: collagenase, 37°, 16 hours, pH 7.5, 14C collagen
# T1 sequence (P03956 100-469): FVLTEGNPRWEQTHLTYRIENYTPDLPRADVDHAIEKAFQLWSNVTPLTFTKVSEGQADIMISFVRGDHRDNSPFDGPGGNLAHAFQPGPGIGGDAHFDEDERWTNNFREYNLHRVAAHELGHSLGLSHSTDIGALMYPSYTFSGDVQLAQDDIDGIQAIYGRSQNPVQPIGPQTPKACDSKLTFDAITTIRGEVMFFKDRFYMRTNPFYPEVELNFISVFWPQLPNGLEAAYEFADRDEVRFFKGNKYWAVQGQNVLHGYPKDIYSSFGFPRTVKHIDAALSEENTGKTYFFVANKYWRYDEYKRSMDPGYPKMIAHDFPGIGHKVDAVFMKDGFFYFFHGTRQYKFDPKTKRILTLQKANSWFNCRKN
# Description: The collagen was acetylated ^14 C collagen prepared by the method of Cawston and Murphy (Methods in Enzymology, 80, 711, 1981), hereby incorporated by reference. The samples were centrifuged to sediment undigested collagen and an aliquot of the radioactive supernatant removed for assay on a scintillation counter as a measure of hydrolysis.
# stromelysin, sequence (P08254 100-477): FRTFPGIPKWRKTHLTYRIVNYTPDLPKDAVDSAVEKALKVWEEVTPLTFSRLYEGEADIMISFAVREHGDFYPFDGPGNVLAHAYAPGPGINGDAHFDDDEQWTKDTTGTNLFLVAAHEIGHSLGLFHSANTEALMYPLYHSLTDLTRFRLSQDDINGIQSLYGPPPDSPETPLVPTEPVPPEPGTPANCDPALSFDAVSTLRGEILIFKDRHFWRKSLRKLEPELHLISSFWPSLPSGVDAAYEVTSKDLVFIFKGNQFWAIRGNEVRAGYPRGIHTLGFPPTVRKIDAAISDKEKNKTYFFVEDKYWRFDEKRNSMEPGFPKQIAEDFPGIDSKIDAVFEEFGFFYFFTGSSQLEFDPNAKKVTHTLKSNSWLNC
Compound,"IC50 ([1]; stromelysin, 37°, 16 hours, pH 7.5, 14C acetylated casein) [nM]",IC50 [2] [nM],"protoglycanase-inhibiting activity (in words) ([1]; qualitative statement, protoglycanase = stromelysin (b9))",collagenase-inhibiting activity (in words) ([2]; qualitative statement)
"CNC(=O)[C@H](Cc1ccccc1)NC(=O)[C@H](CC(C)C)[C@H](CSc1ccccc1)C(=O)NO [Example 1, [4-(N-Hydroxyamino)-2R-isobutyl-3S-(phenylthiomethyl)-succinyl]-L-phenylalanine-N-methylamide]",10,20,,
"CNC(=O)[C@H](Cc1ccccc1)NC(=O)[C@H](CC(C)C)[C@H](CSc1cccs1)C(=O)NO [Example 2, [4-(N-Hydroxyamino)-2R-isobutyl-3S-(thienylthiomethyl)succinyl]-L-phenylalanine-N-methylamide]",,,good,good
"CNC(=O)[C@H](Cc1ccccc1)NC(=O)[C@H](CC(C)C)[C@H](CS)C(=O)NO [Example 5, [4-(N-Hydroxyamino)-2R-isobutyl-3S-(mercaptomethyl)succinyl]-L-phenylalanine-N-methylamide]",,3,,

# From US5530161A, “Hydroxamic acid based collagenase inhibitors” (priority 1994, dated 1996)
